Data: patent US20250327028A1, “ENGINEERED PLATELETS AS TARGETED PROTEIN DEGRADERS” (Wisconsin Alumni Research Foundation, priority 2024, published 2025)

What was measured:
Type in all cases: cell-based, murine
4T1 cells [1] = experiment: In-gel fluorescence detection of NA-647 internalization in 4T1 cells cotreated with HAC-B; settings: 4T1 cells cotreated with HAC-B (all concentrations) and NA-647, 2 h
Experimental: In-gel fluorescence detection: In-gel fluorescence was mainly used to investigate the internalization of NeutrAvidin™_647 in HAC-B-treated cancer cells.
Sample preparation: 4T1 or WT MDA-MB-231 cells were seeded in 6-well culture plates with a density of 5×10^4 cells in each well and cultured for 24 h. If HAI pretreatment was performed, the cells were incubated in the HAI-containing blank medium at different concentrations for 2 h and washed with PBS twice before the following treatments. Then, the cells were treated with free HAC-B or the combinations of various ligands at the indicated concentrations for the predetermined time points. Next, the drug-containing medium was removed, and PBS was used to wash the cells twice, followed by incubating the cells in the blank medium containing NeutrAvidin™ DyLight™ 650 (NA-647, Invitrogen/84607) at 0.5 μM for 1 h. […]
In-gel fluorescence imaging: After 30-min lysis, the lysates were centrifuged at 10,000 g for 10 minutes at 4° C., and the corresponding supernatants were collected, followed by quantification of the total proteins in the supernatant through the BCA assay. […] After the proteins were separated, the gels were subjected to fluorescence imaging with the ChemiDoc™ MP imaging system (Bio-Rad).

4T1 cells [2] = experiment: HAC-B-mediated internalization of streptavidin in 4T1 cells; settings: 4T1 cells pretreated 5 μM 2 h, vs cells without pretreatment
Experimental: HAC-B-mediated internalization of streptavidin in 4T1 cells: 5×10^4 4T1 cells were seeded in a confocal dish and cultured for 24 h at 37° C. Then, the cells were treated with free HAC-B at 5 μM for 2 h. Next, the drug-containing medium was removed, and PBS was used to wash the cells twice, followed by incubating the cells in the blank medium containing streptavidin-FITC at 0.5 μM for 1 h. For cotreatment, 4T1 cells were cotreated with 5 μM HAC-B and 0.5 μM FITC-SA for 1 h. Before staining with Hoechst 33342, the cells were washed with PBS twice and fixed with 4% PFA at room temperature for 20 min. Finally, the cells were subjected to Leica SP8 Confocal WLL STED microscopy for observation.

BRD4 = biological target: T1, BRD4 (Mus musculus, UniProt Q9ESU6); experiment: Immunoblot analysis of BRD4 degradation in 4T1 cells after free HAC treatment
T1 construct: endogenous in cells; host or cells: 4T1
From the text: Immunoblot analysis: Immunoblot analysis was used to evaluate the expression of BRD4, HSP90, HSP90a, and PD-L1 in 4T1, WT MDA-MB-231, HSP90α-KO MDA-MB-231 or PEA-10 cells after various treatments and also served as the detection method for IP or co-IP experiments. The procedures for preparing IP or co-IP samples were indicated in the relevant experimental parts.
Sample preparation for various cancer cells after free HAC treatment: Various cells, including 4T1, WT MDA-MB-231, HSP90α-KO MDA-MB-231, or PEA-10 cells, were seeded in 6-well culture plates with a density of 5×10^4 cells in each well and cultured for 24 h. Then, if HAI pretreatment was performed, the cells were incubated in the HAI-containing blank medium at different concentrations for 2 h and washed with PBS twice before the following treatments. The medium in the corresponding wells was replaced with 1 mL of blank medium containing the DMSO vehicle, HACs, or the combinations of various free ligands at the predetermined concentrations. After incubation for the indicated time points, cells were washed with PBS and lysed on ice with the relevant lysis buffer containing PMSF (1 mM) and the phosphatase inhibitor cocktail for 30 min. As for the conditioned medium (CM), the culturing complete medium of the corresponding cancer cells in each well was collected after 24-h incubation and subjected to centrifugation at 2000 rpm for 5 min to obtain the supernatant. The filtrate of the supernatants was collected following filtration over a 0.45 μm filter, serving as the CM. Regarding the cell samples for BRD4 detection, the lysis buffer containing HEPES-KOH (pH=7.5, 10 mM), NaCl (500 mM), EDTA (5 mM), NP-40 (1%), and SDS (0.1%) was used with the indicated PMSF and phosphatase inhibitor cocktail. As for PD-L1 detection, RIPA buffer (Thermo Fisher Scientific/J63306.AP) was used with the indicated PMSF and phosphatase inhibitor cocktail.
General procedures for immunoblot analysis: After a 30-min lysis, the lysates were centrifuged at 10,000 g for 10 minutes at 4° C., and the corresponding supernatants were collected, followed by quantification of the total proteins in the supernatant through the BCA assay. Afterward, the proteins in the supernatant were mixed with the loading buffer and heated at 95° C. for 15 min. Equal amounts of proteins from different samples ([…]) were loaded into the Bis-Tris gel formulated with Bis-Tis buffer, 30% acrylamide/Bis, 10% ammonium persulfate (APS) solution, and TEMED. The separated proteins were transferred to polyvinylidene fluoride (PVDF) membranes before the membranes were blocked with 5% nonfat milk in PBS-T. Next, the PVDF membranes were incubated with primary antibodies overnight at 4° C., if necessary, followed by the incubation with the goat-anti-rabbit IgG H & L (HRP) secondary antibodies at room temperature for 2 h. Finally, the bands were treated with electrochemiluminescence (ECL) western blot substrate, detected by the iBright™ imaging system and quantified with ImageJ software. 8% Bis-Tris gels were used for BRD4 detection, and 10% gels were adopted to analyze PD-L1.

N#CCN(C(=O)CCCC[C@@H]1SC[C@@H]2NC(=O)N[C@@H]21)S(=O)(=O)c1ccc(C(=O)NCCCn2c(Sc3cc4c(cc3I)OCO4)nc3c(N)ncnc32)cc1 [HAC-B, N-(3-(6-amino-8-((6-iodobenzo[d][1,3]dioxol-5-yl)thio)-9H-purin-9-yl)propyl)-4-(N-(cyanomethyl)-N-(5-((3aS,4S,6aR)-2-oxohexahydro-1H-thieno[3,4-d]imidazol-4-yl)pentanoyl)sulfamoyl)benzamide]
internalization of NA-647 on cotreatment (4T1 cells [1]): failed to internalize NA-647 in a large quantity within 2 h
internalization of streptavidin-FITC (4T1 cells [2]): much stronger green fluorescence signals

Cc1sc2c(c1C)C(c1ccc(Cl)cc1)=N[C@@H](CC(=O)NCc1cn(CCCC(=O)N(CC#N)S(=O)(=O)c3ccc(C(=O)NCCCn4c(Sc5cc6c(cc5I)OCO6)nc5c(N)ncnc54)cc3)nn1)c1nnc(C)n1-2 [iHAC, (S)—N-(3-(6-amino-8-((6-iodobenzo[d][1,3]dioxol-5-yl)thio)-9H-purin-9-yl)propyl)-4-(N-(4-(4-((2-(4-(4-chlorophenyl)-2,3,9-trimethyl-6H-thieno[3,2-f][1,2,4]triazolo[4,3-a][1,4]diazepin-6-yl)acetamido)methyl)-1H-1,2,3-triazol-1-yl)butanoyl)-N-(cyanomethyl)sulfamoyl)benzamide]
BRD4 degradation in presence of proteasome inhibitor epoxomicin (Epox) (BRD4; 4T1 and WT MDA-MB-231 cells (FIGS. 2K, 2L), lower or higher effective concentrations): rescue effect induced by proteasome inhibitor epoxomicin (Epox)
higher effective concentration that efficiently reduces BRD4 expression (BRD4; 4T1 cells, 24 h): 20 µM
lower effective concentration that efficiently reduces BRD4 expression (BRD4; 4T1 cells, 24 h): 0.16 µM
time dependence of BRD4 downregulation (BRD4; 4T1 cells, at the two effective concentrations): in a time-dependent manner
shape of concentration response of BRD4 degradation (BRD4; 4T1 cells, at relatively lower concentrations, reversed at 20 μM): hook effect
